Experiment [1] deals with small intestine of Beagle dogs. The experiment in a line: Myoelectric activity of the small intestine in Beagle dogs (implanted electrodes). The format is in vivo. The note with it: Canis lupus familiaris, sc, read-out: threshold dose for stimulating myoelectric activity. As to the method:
Monopolar electrodes are implanted on the serosal side of the gut wall along the small intestine of Beagle dogs. From these electrodes, signals are fed into a preamplifier and filtered for the registration of low and high frequency potentials, in order to separate slow waves from spikes. The number of spike bursts occuring in 2 min. periods are determined. From this the following data are extracted: duration of phase I--III, interval between 2 consecutive phase III blocks, and propagation velocity. One or two cycles are recorded prior to drug administration which is done subcutaneously 10-15 min after a Phase III has passed the most distal electrodes. Control experiments are performed routinely by means of solvent administration. In fed dogs, the number of spikes per 30 min. is determined additionally. In this test the compounds of the invention stimulate myoelectric activity at dosages of the order of from about 0.001 to 10 mg/kg s.c.

Experiment [2] relates to isolated guinea-pig ileum. The experiment in a line: Peristaltic reflex in the isolated guinea-pig ileum. To be noted: Cavia porcellus, 0.25 h, 15 min contact, read-out: pEC50 value, stimulatory effect on the peristaltic activity (converted). The format is cell-based. As to the method:
Furthermore, the stimulatory effect on gastrointestinal motility of compounds of the invention is also indicated e.g. by their effects on the peristaltic reflex in the isolated guinea-pig ileum.
Male guinea-pigs, 200-400 g are stunned and bled. Segments of terminal ileum, 4-5 cm long, are removed and suspended as described by Trendelenburg in Arch. Exp. Path. Pharmakol., 81, 55-129 (1917), in a 20 ml organ bath under an initial load of 1 g. The tissue is bathed with a modified Krebs solution (NaCl 118.6; CaCl2 2.7; KCl 4.7; KH2 PO4 1.2; MgSO4 0.1; NaHCO3 25.0; and glucose 5.6 mM), maintained at 37° C. and bubbled with 5% CO2 in oxygen. Peristalsis is elicited for 30 s by increasing the intraluminal pressure from zero by 1 to 4 cm H2 O. Measurements are made of longitudinal muscle responses by using an isotonic force-displacement transducer and of circular muscle activity by employing a pressure transducer. The area under the curve (AUG) of peristaltic contractions is determined and concentration response curves are established by plotting the AUC representing the circular and longitudinal muscle activity. Each preparation is used as its own control, taking the peristaltic activity before the administration of the compounds to be tested as 100%. Compounds to be tested are added to the serosal side and are left in contact with the tissue for 15 min. In this test compounds of the invention have a stimulatory effect on the peristaltic activity at concentrations of the order of from about 10^-10 M to 10^-7 M.

Experiment [3] deals with 5HT-1D receptors. The experiment in a line: Binding affinity to 5HT-1D receptors (Waeber et al.). To be noted: 5HT-1D receptor binding. From the text:
Compounds of the invention also have an agonist effect on 5HT-1D receptors. Their binding affinity to 5HT-1D receptors has been determined e.g. according to the method disclosed by C. Waeber et al., Naunyn-Schmiedeberg,s Arch. Pharmacol., 337, 595-601 (1988).

Experiment [4] has as its system 5-HT1D receptor. The experiment in a line: Contraction of pig anterior cerebral artery segments (5-HT1D mediated). The format is cell-based. To be noted: vascular contraction, ketanserin 10^-7 M present. As to the method: Anterior cerebral arteries are excised from pig brains obtained from the local slaughterhouse. Circular segments of 3-4 mm length are mounted between two L-shaped metal prongs and placed in temperature-controlled (37° C.) organ baths filled with Krebs solution that is continuously gassed with 5% CO2 in oxygen. Agonist-induced vascular contractions are measured isometrically. In order to measure only 5-HT1D receptor mediated effects, ketanserin (10^-7 M), which prevents contractions via 5-HT2 receptors, is added to the bath solution. Compounds of the invention induce vascular contractions at a concentration of from 10^-10 to 10^-5 M, particularly 10^-9 to 10^-7 M. In this test, it has been determined that compound of Example 63 has a pD2 value of 9.0.

Experiment [5] has as its target T1, 5-HT4 receptors (Cavia porcellus, UniProt O70528).
T1 construct: The isolated longitudinal muscle of the guinea pig ileum with its adhering myenteric plexus; from tissue; host or cells: guinea pig ileum longitudinal muscle strip with adhering myenteric plexus
The experiment in a line: Antagonism of 5-HT-induced contraction, longitudinal muscle strip of guinea pig ileum (5-HT4). The format is cell-based. The note with it: methysergide 0.1 μM present, read-out: pA2 value (converted). An excerpt: The isolated longitudinal muscle of the guinea pig ileum with its adhering myenteric plexus is a well established model which permits investigations of the mechanism of action of various neurotransmitters.
Male guinea pigs (200-400 g) are killed by a blow on the head and exsanguinated. A length of small intestine is removed about 2 cm from the ileo-caecal valve. The ileum is stretched over a glass rod and the mesentery is carefully removed. By strocking tangentially away from the mesenteric attachment with a wad of cotton wool, the longitudinal muscle layer is separated and stripped from the underlying circular muscle. Longitudinal muscle strips, 3-4cm length, are mounted in a 10 ml organ bath containing Tyrode solution at 37° C. and bubbled with a 5% carbon dioxide in oxygen. The Tyrode solution is of the following composition (mmol/1): NaCl 137.0; CaCl2 1.8; KCl 2.7; MgCl2 1.05; NaHCO3 11.9; NaHPO4 0.4; glucose 5.6; and methysergide 0.1 μM. The strips are maintained under a resting tension of 500 mg. Contractions are recorded with an isotonic pendulum lever. After equilibration for 30 min a set concentration of carbachol is applied in 10 min intervals until a consistent reaction is achieved.
Non-cumulative concentration-response curves for 5-HT are established by adding increasing concentrations of the agonist to the organ bath at intervals of at least 15 min. […] Each concentration is left in contact with the tissue for 1 min. Each strip is only used to record two concentration-response curves; the first for 5-HT alone and the second for 5-HT in the presence of a set concentration of antagonist, each strip thus serving as its own control. Antagonists are allowed to preequilibrate for at least 10 min prior to addition of 5-HT. The contractions expressed as percentage of the maximal response to 5-HT obtained from several preparations are plotted as mean values in order to obtain log-concentration-response curves. Inhibition constants are expressed in the form of pA2 values which are graphically determined according to conventional methods (Arunlakshana et al, 1959, McKay 1978). […]

T1 sequence (O70528 whole entry): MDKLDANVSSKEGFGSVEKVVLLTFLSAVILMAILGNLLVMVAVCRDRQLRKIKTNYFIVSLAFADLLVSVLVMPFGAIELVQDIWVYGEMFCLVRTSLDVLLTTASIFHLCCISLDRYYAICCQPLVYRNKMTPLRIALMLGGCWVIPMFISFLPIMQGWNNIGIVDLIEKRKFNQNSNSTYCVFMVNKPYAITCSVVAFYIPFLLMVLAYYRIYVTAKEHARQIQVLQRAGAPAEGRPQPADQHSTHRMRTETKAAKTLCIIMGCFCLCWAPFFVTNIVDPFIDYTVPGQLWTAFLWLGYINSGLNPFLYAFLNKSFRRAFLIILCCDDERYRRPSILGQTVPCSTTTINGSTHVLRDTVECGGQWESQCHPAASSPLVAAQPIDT

Consider `COc1cc(N)c(Cl)cc1C(=O)NC1CCN(CCCOc2ccc(F)cc2)CC1OC` (stereo not shown) [Cisapride, reference compound], for which, in experiment [1], the minimal effective dose turned out to be 0.3 mg/kg. Also, the EC50 in experiment [2] was more than 100 nM. As for `CCCCCNC(=N)NN=Cc1c[nH]c2ccc(OC)cc12` [Example 13], in experiment [1], the minimal effective dose is 0.03 mg/kg. For the same compound, in experiment [2], the EC50 is 1 nM. The compound `CCCCCNC(=N)NN=Cc1c[nH]c2ccc(C(N)=O)cc12` [Example 63] gave a pKD value in experiment [3] of 8.55. The pD2 value in experiment [4] turned out to be 9.0. Take `CCCCCNC(=N)NN=Cc1c[nH]c2c(C)cc(O)cc12` [Example 89]: the Kb in experiment [5] was 7.94 nM. For the compound `CCCCCNC(=N)NN=Cc1cn(CC)c2ccc(O)cc12` [Example 90], the Kb in experiment [5] is 10 nM. As to `CCCCCN(C)C(=N)NN=Cc1c[nH]c2c(C)cc(O)cc12` [Example 97], the Kb in experiment [5] is 5.01 nM. `CCN(CC)CCNC(=O)c1cc(Cl)c(N)cc1OC` [metoclopramide]: the EC50 in experiment [2] was 2000 nM.

The values above are taken from patent publication US5510353A, “Certain aminoguanidine compounds, pharmaceutical compositions containing them and their use in treating gastrointestinal motility disorders and disorders associated with cephalic pain” (Sandoz Ltd., priority 1991, dated 1996).
